Experimental data from patent publication US20100041891A1, “AMIDE COMPOUND” (Takeda Pharmaceutical Company Limited, priority 2008, published 2010).

Legend:
human GPR52 = molecular target: T1, human GPR52 (Homo sapiens, UniProt Q9Y2T5); assay: Increased intracellular cAMP levels in human GPR52 expression CHO cells; format: cell-based; details: 1 μM test compound, 30 min at 37° C., human GPR52 expression CHO (dhfr-) cells; 100% = cAMP level with 1 μM Reference Example 136, 0% = DMSO
T1 construct: expressed in transfected cells; host or cells: CHO (dhfr-) cells
T1 sequence (Q9Y2T5 whole entry): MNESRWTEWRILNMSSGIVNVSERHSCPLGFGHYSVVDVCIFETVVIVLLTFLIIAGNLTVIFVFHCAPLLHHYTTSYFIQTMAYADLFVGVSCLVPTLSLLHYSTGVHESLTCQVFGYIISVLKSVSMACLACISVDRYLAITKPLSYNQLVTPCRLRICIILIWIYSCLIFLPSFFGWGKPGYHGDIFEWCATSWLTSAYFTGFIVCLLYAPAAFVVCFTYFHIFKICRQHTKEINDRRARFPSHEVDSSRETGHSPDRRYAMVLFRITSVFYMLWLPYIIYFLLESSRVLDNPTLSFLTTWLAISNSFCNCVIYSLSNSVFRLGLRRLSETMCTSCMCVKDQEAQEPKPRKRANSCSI
Description: Increased intracellular cAMP levels in human GPR52 expression CHO cells 1×10^4 human GPR52 expression CHO (dhfr-) cells were incubated with 1 μM test compound for 30 min at 37° C. in 30 μL assay buffer (HBSS (containing Ca^2+ and Mg^2+), 0.5% BSA, 100 μM IBMX, 100 μM Ro 20-1724, 5 mM HEPES (pH 7.55)) using an OptiPlate-384 (by PerkinElmer). The intracellular cAMP level was then assayed with an EnVision (by PerkinElmer) according to the protocol of the AlphaScreen cAMP Assay Kit (by PerkinElmer). The GPR52 agonist activity was calculated, assuming the intracellular cAMP level in the presence of 1 μM of 3-(6-(2-(3,4-dimethoxyphenyl)ethoxy)pyridine-2-yl)-N-(2-pyrrolidin-1-ylethyl)benzamide (Reference Example 136) to be 100% and assuming the intracellular cAMP level when DMSO was added instead of test compound to be 0%.

[1] = system: methamphetamine-induced locomotor hyperactivity in mice; assay: Inhibition of methamphetamine-induced locomotor hyperactivity; format: in vivo; details: male ICR mice, test compound 30 mg/kg orally, 60 min later methamphetamine 2 mg/kg subcutaneous, locomotor activity 90 min after methamphetamine, versus vehicle group
Description: Compounds of the present invention can be evaluated by assessing the inhibition of methamphetamine-induced locomotor hyperactivity in mice. The method of Okuyama et al was modified to test the inhibition of methamphetamine-induced locomotor hyperactivity (Life Science, Vol. 65, pages 2109-2125 (1999)).
Locomotor activity was measured using a 32-channel locomotor activity measurement device MDC-LT (by BrainScience Idea Co., Ltd.), which emits infrared beams from the top of a cage (30×40×20 cm). 6- to 8-week old male ICR mice were acclimated for at least 45 min in the measurement cages, and then either test compound (30 mg/kg) dissolved in vehicle (0.5% methylcellulose aqueous solution) or the vehicle alone were orally administered. This oral administration was followed 60 min later by subcutaneous administration of methamphetamine (2 mg/kg).
90 min after administration of methamphetamine, the number of times the laboratory animals passed through the infrared beams emitted inside the measurement cages was measured to quantify locomotor activity. The following equation was used to calculate the rate at which methamphetamine-induced locomotor hyperactivity was inhibited (activity inhibition rate (%)).
Activity inhibition rate (%)={1−(locomotor activity after treatment with methamphetamine in test compound treatment group÷locomotor activity after treatment with methamphetamine in vehicle treatment group)}×100

Row | Compound | GPR52 agonist activity (%) (human GPR52) | melting point [°C] | Activity Inhibition Rate (%) [1] [%]
1 | N#CCCNC(=O)c1cccc(-c2cccc3nn(Cc4ccc(F)c(Cl)c4)cc23)c1 [Working Example 65, 3-[2-(3-Chloro-4-fluorobenzyl)-2H-indazol-4-yl]-N-(2-cyanoethyl)benzamide] | 75 |  | 
2 | COCCNC(=O)c1cccc(-c2ccc(F)c3cc(Cc4cccc(S(C)(=O)=O)c4)sc23)c1 [Working Example 159, 3-[4-Fluoro-2-[3-(methylsulfonyl)benzyl]-1-benzothiophen-7-yl]-N-(2-methoxyethyl)benzamide] | 80 |  | 
3 | NC(=O)CNC(=O)c1cccc(-c2cccc3sc(Cc4cccc(C(F)(F)F)c4)cc23)c1 [Working Example 165, N-(2-Amino-2-oxoethyl)-3-[2-[3-(trifluoromethyl)benzyl]-1-benzothiophen-4-yl]benzamide] | 108 |  | 
4 | NC(=O)CNC(=O)c1cccc(-c2cccc3cc(Cc4ccc(F)c(Cl)c4)sc23)c1 [Working Example 174, N-(2-Amino-2-oxoethyl)-3-[2-(3-chloro-4-fluorobenzyl)-1-benzothiophen-7-yl]benzamide] | 90 |  | 
5 | COCCNC(=O)c1cccc(-c2cccc3cc(Cc4cc(F)cc(Cl)c4)sc23)c1 [Working Example 179, 3-[2-(3-Chloro-5-fluorobenzyl)-1-benzothiophen-7-yl]-N-(2-methoxyethyl)benzamide] | 89 |  | 
6 | NC(=O)c1cccc(-c2cccc3cc(COc4cccc(C(F)(F)F)c4)sc23)c1 [Working Example 184, 3-(2-[[3-(Trifluoromethyl)phenoxy]methyl]-1-benzothiophen-7-yl]benzamide] | 82 |  | 
7 | NC(=O)CNC(=O)c1cncc(-c2cccc3cc(Cc4cc(F)cc(Cl)c4)sc23)c1 [Working Example 221, N-(2-Amino-2-oxoethyl)-5-[2-(3-chloro-5-fluorobenzyl)-1-benzothiophen-7-yl]pyridine-3-carboxamide] | 81 |  | 
8 | O=C(NCCO)c1cccc(-c2cccc3cc(Cc4cc(F)cc(Cl)c4)sc23)n1 [Working Example 222, 6-[2-(3-Chloro-5-fluorobenzyl)-1-benzothiophen-7-yl]-N-(2-hydroxyethyl)pyridine-2-carboxamide] | 62 |  | 
9 | CC(C)n1cc(Cc2cc3cccc(-c4cccc(C(=O)NCCO)c4)c3s2)ccc1=O [Working Example 292, N-(2-Hydroxyethyl)-3-[2-[[1-(1-methylethyl)-6-oxo-1,6-dihydropyridin-3-yl]methyl]-1-benzothiophen-7-yl]benzamide] | 61 |  | 
10 | O=C1NCc2c1cccc2-c1cccc2cc(Cc3cccc(C(F)(F)F)c3)sc12 [Working Example 326, 4-[2-[3-(Trifluoromethyl)benzyl]-1-benzothiophen-7-yl]-2,3-dihydro-1H-isoindole-1-one] | 92 |  | 
11 | CC(C)OCCNC(=O)c1cccc(-c2cccc3cc(Cc4cc(F)cc(Cl)c4)sc23)c1 [Working Example 360, 3-[2-(3-Chloro-5-fluorobenzyl)-1-benzothiophen-7-yl]-N-[2-(1-methylethoxy)ethyl]benzamide] | 79 |  | 41
12 | NC(=O)CNC(=O)c1cccc(-c2cccc3c(F)c(Cc4cccc(C(F)(F)F)c4)sc23)c1 [Working Example 405, N-(2-Amino-2-oxoethyl)-3-[3-fluoro-2-[3-(trifluoromethyl)benzyl]-1-benzothiophen-7-yl]benzamide] | 113 |  | 

Second part, led by results:

Row | GPR52 agonist activity (%) (human GPR52) | melting point [°C] | Compound | Activity Inhibition Rate (%) [1] [%]
13 | 82 |  | O=C(NCCO)c1cccc(-c2cccc3oc(Cc4cccc(C(F)(F)F)c4)cc23)c1 [Working Example 7, N-(2-Hydroxyethyl)-3-[2-[3-(trifluoromethyl)benzyl]-1-benzofuran-4-yl]benzamide] | 89
14 | 74 |  | N#CCCNC(=O)c1ccnc(-c2cccc3oc(Cc4cccc(C(F)(F)F)c4)cc23)c1 [Working Example 21, N-(2-Cyanoethyl)-2-[2-[3-(trifluoromethyl)benzyl]-1-benzofuran-4-yl]isonicotinamide] | 
15 | 75 |  | N#CCCNC(=O)c1cccc(-c2nccc3oc(Cc4cccc(C(F)(F)F)c4)cc23)c1 [Working Example 23, N-(2-Cyanoethyl)-3-[2-[3-(trifluoromethyl)benzyl]furo[3,2-c]pyridin-4-yl]benzamide] | 
16 | 59 |  | Cn1c(Cc2cccc(C(F)(F)F)c2)nc2c(-c3cccc(C(=O)NCCC#N)c3)cccc21 [Working Example 88, N-(2-Cyanoethyl)-3-[1-methyl-2-[3-(trifluoromethyl)benzyl]-1H-benzimidazol-4-yl]benzamide] | 37
17 | 67 |  | O=C(NCCO)c1cccc(-c2cccn3c(=O)n(Cc4cccc(C(F)(F)F)c4)nc23)c1 [Working Example 99, N-(2-Hydroxyethyl)-3-[3-oxo-2-[3-(trifluoromethyl)benzyl]-2,3-dihydro[1,2,4]triazolo[4,3-a]pyridin-8-yl]benzamide] | 
18 | 94 |  | Cc1c(Cc2cccc(C(F)(F)F)c2)sc2c(-c3cccc(C(=O)NCCO)c3)cccc12 [Working Example 191, N-(2-Hydroxyethyl)-3-[3-methyl-2-[3-(trifluoromethyl)benzyl]-1-benzothiophen-7-yl]benzamide] | 65
19 | 88 |  | O=C(NCCO)c1ccnc(-c2cccc3cc(Cc4cccc(C(F)(F)F)c4)sc23)c1 [Working Example 198, N-(2-Hydroxyethyl)-2-[2-[3-(trifluoromethyl)benzyl]-1-benzothiophen-7-yl]pyridine-4-carboxamide] | 45
20 | 85 |  | NC(=O)CNC(=O)c1cccc(-c2ccc(F)c3cc(Cc4cccc(C(F)(F)F)c4)sc23)c1 [Working Example 230, N-(2-Amino-2-oxoethyl)-3-[4-fluoro-2-[3-(trifluoromethyl)benzyl]-1-benzothiophen-7-yl]benzamide] | 58
21 | 80 |  | NC(=O)CNC(=O)c1cccc(-c2cccc3sc(Cc4cccc(C(F)(F)F)c4)nc23)c1 [Working Example 252, N-(2-Amino-2-oxoethyl)-3-[2-[3-(trifluoromethyl)benzyl]-1,3-benzothiazol-4-yl]benzamide] | 
22 | 93 |  | O=C(NCCO)c1cccc(-c2ccnc3cc(Cc4cccc(C(F)(F)F)c4)sc23)c1 [Working Example 265, N-(2-hydroxyethyl)-3-[2-[3-(trifluoromethyl)benzyl]thieno[3,2-b]pyridin-7-yl]benzamide] | 
23 | 94 |  | O=C(NCCO)c1cc(F)cc(-c2ccc(F)c3cc(Cc4cccc(C(F)(F)F)c4)sc23)c1 [Working Example 271, 3-Fluoro-5-[4-fluoro-2-[3-(trifluoromethyl)benzyl]-1-benzothiophen-7-yl]-N-(2-hydroxyethyl)benzamide] | 
24 |  | 89 to 94 | O=C(O)CNC(=O)c1cccc(-c2cccc3oc(Cc4cccc(C(F)(F)F)c4)cc23)c1 [Working Example 303, N-[(3-[2-[3-(Trifluoromethyl)benzyl]-1-benzofuran-4-yl]phenyl)carbonyl]glycine] | 
25 | 83 |  | O=C(NCCO)c1cccc(-c2cncc3cc(Cc4cccc(C(F)(F)F)c4)oc23)c1 [Working Example 413, N-(2-Hydroxyethyl)-3-[2-[3-(trifluoromethyl)benzyl]furo[3,2-c]pyridin-7-yl]benzamide] | 
